What follows are compounds tested on NL-RLuc virus (assay: Inhibition of HIV replication (NL-RLuc reporter virus in MT-2 cells, luciferase readout)). Conditions: Human immunodeficiency virus 1, MT2, 120 h, read-out: Activity.
Assay type: cell-based
Excerpt: Inhibition of HIV replication: A recombinant NL-RLuc proviral clone was constructed in which a section of the nef gene from NL4-3 was replaced with the Renilla Luciferase gene. This virus is fully infectious and can undergo multiple cycles of replication in cell culture. In addition, the luciferous reporter provides a simple and easy method for quantitating the extent of virus growth and consequently, the antiviral activity of test compounds. The plasmid pNLRLuc contains the proviral NL-Rluc DNA cloned into pUC18 at the PvuII site. The NL-RLuc virus was prepared by transfection of 293T cells with the plasmid pNLRLuc. Transfections were performed using the LipofectAMINE PLUS kit from Invitrogen (Carlsbad, Calif.) according to the manufacturer and the virus generated was titered in MT-2 cells. For susceptibility analyses, the titrated virus was used to infect MT-2 cells in the presence of compound, and after 5 days of incubation, cells were processed and quantitated for virus growth by the amount of expressed luciferase. Assay media was RPMI 1640 supplemented with 10% heat inactivated fetal bovine serum (FBS), 100 units/ml penicillin G/100 units/ml streptomycin, 10 mM HEPES buffer pH 7.55 and 2 mM L-glutamine. The results from at least 2 experiments were used to calculate the EC50 values. Luciferase was quantitated using the Dual Luciferase kit from Promega (Madison, Wis.). Susceptibility of viruses to compounds was determined by incubation in the presence of serial dilutions of the compound. The 50% effective concentration (EC50) was calculated by using the exponential form of the median effect equation where (Fa)=1/[1+(ED50/drug conc.)^m] (Johnson V A, Byington R T. Infectivity Assay. In Techniques in HIV Research. ed. Aldovini A, Walker B D. 71-76. New York: Stockton Press.1990). Activity equal to A refers to a compound having an EC50≤100 nM, while B and C denote compounds having an EC50 between 100 nM and 1 uM (B) or >1 uM (C).

Row | Compound | EC50
1 | Cc1nc(C)c([C@H](OC(C)(C)C)C(=O)O)c(N2CCC(C)(C)CC2)c1-c1ccc2c(c1)CCN(Cc1ccc(F)cc1)C2 [Compound 1, (S)-2-(tert-butoxy)-2-(4-(4,4-dimethylpiperidin-1-yl)-5-(2-(4-fluorobenzyl)-1,2,3,4-tetrahydroisoquinolin-6-yl)-2,6-dimethylpyridin-3-yl)acetic acid] | < 0.1 µM
2 | Cc1nc(C)c([C@H](OC(C)(C)C)C(=O)O)c(N2CCC(C)(C)CC2)c1-c1ccc2c(c1)CCN(Cc1cccc(C(F)(F)F)c1)C2 [Compound 2, (S)-2-(tert-butoxy)-2-(4-(4,4-dimethylpiperidin-1-yl)-2,6-dimethyl-5-(2-(3-(trifluoromethyl)benzyl)-1,2,3,4-tetrahydroisoquinolin-6-yl)pyridin-3-yl)acetic acid] | < 0.1 µM
3 | Cc1cccc(CN2CCc3cc(-c4c(C)nc(C)c([C@H](OC(C)(C)C)C(=O)O)c4N4CCC(C)(C)CC4)ccc3C2)c1 [Compound 3, (S)-2-(tert-butoxy)-2-(4-(4,4-dimethylpiperidin-1-yl)-2,6-dimethyl-5-(2-(3-methylbenzyl)-1,2,3,4-tetrahydroisoquinolin-6-yl)pyridin-3-yl)acetic acid] | < 0.1 µM
4 | Cc1ccccc1CN1CCc2cc(-c3c(C)nc(C)c([C@H](OC(C)(C)C)C(=O)O)c3N3CCC(C)(C)CC3)ccc2C1 [Compound 4, (S)-2-(tert-butoxy)-2-(4-(4,4-dimethylpiperidin-1-yl)-2,6-dimethyl-5-(2-(2-methylbenzyl)-1,2,3,4-tetrahydroisoquinolin-6-yl)pyridin-3-yl)acetic acid] | < 0.1 µM
5 | Cc1ccc(CN2CCc3cc(-c4c(C)nc(C)c([C@H](OC(C)(C)C)C(=O)O)c4N4CCC(C)(C)CC4)ccc3C2)cc1 [Compound 5, (S)-2-(tert-butoxy)-2-(4-(4,4-dimethylpiperidin-1-yl)-2,6-dimethyl-5-(2-(4-methylbenzyl)-1,2,3,4-tetrahydroisoquinolin-6-yl)pyridin-3-yl)acetic acid] | < 0.1 µM
6 | COc1cccc(CN2CCc3cc(-c4c(C)nc(C)c([C@H](OC(C)(C)C)C(=O)O)c4N4CCC(C)(C)CC4)ccc3C2)c1 [Compound 6, (S)-2-(tert-butoxy)-2-(4-(4,4-dimethylpiperidin-1-yl)-5-(2-(3-methoxybenzyl)-1,2,3,4-tetrahydroisoquinolin-6-yl)-2,6-dimethylpyridin-3-yl)acetic acid] | < 0.1 µM
7 | Cc1nc(C)c([C@H](OC(C)(C)C)C(=O)O)c(N2CCC(C)(C)CC2)c1-c1ccc2c(c1)CCN(Cc1cccc(F)c1)C2 [Compound 7, (S)-2-(tert-butoxy)-2-(4-(4,4-dimethylpiperidin-1-yl)-5-(2-(3-fluorobenzyl)-1,2,3,4-tetrahydroisoquinolin-6-yl)-2,6-dimethylpyridin-3-yl)acetic acid] | < 0.1 µM
8 | Cc1nc(C)c([C@H](OC(C)(C)C)C(=O)O)c(N2CCC(C)(C)CC2)c1-c1ccc2c(c1)CCN(Cc1ccc(C(F)(F)F)cc1)C2 [Compound 8, (S)-2-(tert-butoxy)-2-(4-(4,4-dimethylpiperidin-1-yl)-2,6-dimethyl-5-(2-(4-(trifluoromethyl)benzyl)-1,2,3,4-tetrahydroisoquinolin-6-yl)pyridin-3-yl)acetic acid] | < 0.1 µM
9 | Cc1nc(C)c([C@H](OC(C)(C)C)C(=O)O)c(N2CCC(C)(C)CC2)c1-c1ccc2c(c1)CCN(Cc1ccccc1F)C2 [Compound 9, (S)-2-(tert-butoxy)-2-(4-(4,4-dimethylpiperidin-1-yl)-5-(2-(2-fluorobenzyl)-1,2,3,4-tetrahydroisoquinolin-6-yl)-2,6-dimethylpyridin-3-yl)acetic acid] | < 0.1 µM
10 | Cc1nc(C)c([C@H](OC(C)(C)C)C(=O)O)c(N2CCC(C)(C)CC2)c1-c1ccc2c(c1)CCN(Cc1cccc(C(=O)O)c1)C2 [Compound 10, (S)-3-((6-(5-(tert-butoxy(carboxy)methyl)-4-(4,4-dimethylpiperidin-1-yl)-2,6-dimethylpyridin-3-yl)-3,4-dihydroisoquinolin-2(1H)-yl)methyl)benzoic acid] | > 1 µM
11 | Cc1nc(C)c([C@H](OC(C)(C)C)C(=O)O)c(N2CCC(C)(C)CC2)c1-c1ccc2c(c1)CCN(Cc1cccc(-c3ccccc3)c1)C2 [Compound 11, (S)-2-(5-(2-([1,1′-biphenyl]-3-ylmethyl)-1,2,3,4-tetrahydroisoquinolin-6-yl)-4-(4,4-dimethylpiperidin-1-yl)-2,6-dimethylpyridin-3-yl)-2-(tert-butoxy)acetic acid] | < 0.1 µM
12 | Cc1nc(C)c([C@H](OC(C)(C)C)C(=O)O)c(N2CCC(C)(C)CC2)c1-c1ccc2c(c1)CCN(Cc1ccccc1C(F)(F)F)C2 [Compound 12, (S)-2-(tert-butoxy)-2-(4-(4,4-dimethylpiperidin-1-yl)-2,6-dimethyl-5-(2-(2-(trifluoromethyl)benzyl)-1,2,3,4-tetrahydroisoquinolin-6-yl)pyridin-3-yl)acetic acid] | < 0.1 µM
13 | Cc1nc(C)c([C@H](OC(C)(C)C)C(=O)O)c(N2CCC(C)(C)CC2)c1-c1ccc2c(c1)CCN(C(C)c1ccccc1)C2 (stereo partly drawn) [Compound 13, (2S)-2-(tert-butoxy)-2-(4-(4,4-dimethylpiperidin-1-yl)-2,6-dimethyl-5-(2-(1-phenylethyl)-1,2,3,4-tetrahydroisoquinolin-6-yl)pyridin-3-yl)acetic acid] | < 0.1 µM
14 | Cc1nc(C)c([C@H](OC(C)(C)C)C(=O)O)c(N2CCC(C)(C)CC2)c1-c1ccc2c(c1)CCN(Cc1ccc(-c3ccccc3)cc1)C2 [Compound 14, (S)-2-(5-(2-([1,1′-biphenyl]-4-ylmethyl)-1,2,3,4-tetrahydroisoquinolin-6-yl)-4-(4,4-dimethylpiperidin-1-yl)-2,6-dimethylpyridin-3-yl)-2-(tert-butoxy)acetic acid] | < 0.1 µM
15 | Cc1nc(C)c([C@H](OC(C)(C)C)C(=O)O)c(N2CCC(C)(C)CC2)c1-c1ccc2c(c1)CCN(Cc1cccc(C(F)(F)F)c1C)C2 [Compound 15, (S)-2-(tert-butoxy)-2-(4-(4,4-dimethylpiperidin-1-yl)-2,6-dimethyl-5-(2-(2-methyl-3-(trifluoromethyl)benzyl)-1,2,3,4-tetrahydroisoquinolin-6-yl)pyridin-3-yl)acetic acid] | < 0.1 µM
16 | Cc1ccc(CN2CCc3cc(-c4c(C)nc(C)c([C@H](OC(C)(C)C)C(=O)O)c4N4CCC(C)(C)CC4)ccc3C2)cc1C(F)(F)F [Compound 16, (S)-2-(tert-butoxy)-2-(4-(4,4-dimethylpiperidin-1-yl)-2,6-dimethyl-5-(2-(4-methyl-3-(trifluoromethyl)benzyl)-1,2,3,4-tetrahydroisoquinolin-6-yl)pyridin-3-yl)acetic acid] | < 0.1 µM
17 | Cc1ccc(CN2CCc3cc(-c4c(C)nc(C)c([C@H](OC(C)(C)C)C(=O)O)c4N4CCC(C)(C)CC4)ccc3C2)cc1F [Compound 18, (S)-2-(tert-butoxy)-2-(4-(4,4-dimethylpiperidin-1-yl)-5-(2-(3-fluoro-4-methylbenzyl)-1,2,3,4-tetrahydroisoquinolin-6-yl)-2,6-dimethylpyridin-3-yl)acetic acid] | < 0.1 µM
18 | Cc1ccc(CN2CCc3cc(-c4c(C)nc(C)c([C@H](OC(C)(C)C)C(=O)O)c4N4CCC(C)(C)CC4)ccc3C2)c(C)c1 [Compound 19, (S)-2-(tert-butoxy)-2-(5-(2-(2,4-dimethylbenzyl)-1,2,3,4-tetrahydroisoquinolin-6-yl)-4-(4,4-dimethylpiperidin-1-yl)-2,6-dimethylpyridin-3-yl)acetic acid] | < 0.1 µM
19 | Cc1nc(C)c([C@H](OC(C)(C)C)C(=O)O)c(N2CCC(C)(C)CC2)c1-c1ccc2c(c1)CCN(Cc1ccc(F)cc1F)C2 [Compound 20, (S)-2-(tert-butoxy)-2-(5-(2-(2,4-difluorobenzyl)-1,2,3,4-tetrahydroisoquinolin-6-yl)-4-(4,4-dimethylpiperidin-1-yl)-2,6-dimethylpyridin-3-yl)acetic acid] | < 0.1 µM
20 | Cc1nc(C)c([C@H](OC(C)(C)C)C(=O)O)c(N2CCC(C)(C)CC2)c1-c1ccc2c(c1)CCN(Cc1cccc(F)c1F)C2 [Compound 21, (S)-2-(tert-butoxy)-2-(5-(2-(2,3-difluorobenzyl)-1,2,3,4-tetrahydroisoquinolin-6-yl)-4-(4,4-dimethylpiperidin-1-yl)-2,6-dimethylpyridin-3-yl)acetic acid] | < 0.1 µM
21 | Cc1nc(C)c([C@H](OC(C)(C)C)C(=O)O)c(N2CCC(C)(C)CC2)c1-c1ccc2c(c1)CCN(Cc1ccc(Cl)c(F)c1)C2 [Compound 22, (S)-2-(tert-butoxy)-2-(5-(2-(4-chloro-3-fluorobenzyl)-1,2,3,4-tetrahydroisoquinolin-6-yl)-4-(4,4-dimethylpiperidin-1-yl)-2,6-dimethylpyridin-3-yl)acetic acid] | < 0.1 µM

Same assay, conditions: Human immunodeficiency virus 1, MT2, 120 h, read-out: EC50 μM

Row | Compound | EC50
22 | Cc1nc(C)c([C@H](OC(C)(C)C)C(=O)O)c(N2CCC(C)(C)CC2)c1-c1ccc2c(c1)CCN(Cc1ccc(F)cc1)C2 [Compound 1, (S)-2-(tert-butoxy)-2-(4-(4,4-dimethylpiperidin-1-yl)-5-(2-(4-fluorobenzyl)-1,2,3,4-tetrahydroisoquinolin-6-yl)-2,6-dimethylpyridin-3-yl)acetic acid] | 0.006 µM
23 | Cc1nc(C)c([C@H](OC(C)(C)C)C(=O)O)c(N2CCC(C)(C)CC2)c1-c1ccc2c(c1)CCN(Cc1cccc(F)c1)C2 [Compound 7, (S)-2-(tert-butoxy)-2-(4-(4,4-dimethylpiperidin-1-yl)-5-(2-(3-fluorobenzyl)-1,2,3,4-tetrahydroisoquinolin-6-yl)-2,6-dimethylpyridin-3-yl)acetic acid] | 0.004 µM
24 | Cc1nc(C)c([C@H](OC(C)(C)C)C(=O)O)c(N2CCC(C)(C)CC2)c1-c1ccc2c(c1)CCN(Cc1cccc(C(=O)O)c1)C2 [Compound 10, (S)-3-((6-(5-(tert-butoxy(carboxy)methyl)-4-(4,4-dimethylpiperidin-1-yl)-2,6-dimethylpyridin-3-yl)-3,4-dihydroisoquinolin-2(1H)-yl)methyl)benzoic acid] | 1.48 µM
25 | Cc1nc(C)c([C@H](OC(C)(C)C)C(=O)O)c(N2CCC(C)(C)CC2)c1-c1ccc2c(c1)CCN(Cc1ccc(-c3ccccc3)cc1)C2 [Compound 14, (S)-2-(5-(2-([1,1′-biphenyl]-4-ylmethyl)-1,2,3,4-tetrahydroisoquinolin-6-yl)-4-(4,4-dimethylpiperidin-1-yl)-2,6-dimethylpyridin-3-yl)-2-(tert-butoxy)acetic acid] | 0.034 µM
